Data published in publication PMC3701070 (PLoS ONE, 2013).

What was measured:
Assay in all cases: Cell growth assay
Assay type in all cases: cell-based
[1] = test system: COR-L23; conditions: Homo sapiens, 72 h; COR-L23, RAF WT, RAS WT, 3-day; read-out: gIC50
Procedure, shortened: (§1)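 Baseline plates measured at t = 0; treated plates measured at 72 h via CellTiter-Glo. Values = IC50 for growth inhibition.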

[2] = test system: A427; conditions: Homo sapiens, A-427, 72 h; A427, RAF WT, RAS WT, 3-day; read-out: gIC50
Procedure, shortened: as §1

[3] = test system: MDA-MB-468; conditions: Homo sapiens, 72 h; MDA-MB-468, RAF WT, RAS WT, 3-day; read-out: gIC50
Procedure, shortened: as §1

[4] = test system: Raji; conditions: Homo sapiens, 72 h, RAF WT, RAS WT, 3-day, read-out: gIC50
Procedure, shortened: as §1

[5] = test system: RKO; conditions: Homo sapiens, 72 h, BRAF(V600E), RAS WT, 3-day, read-out: gIC50
Procedure, shortened: as §1

[6] = test system: A101D; conditions: Homo sapiens, 72 h, BRAF(V600E), RAS WT, 3-day, read-out: gIC50
Procedure, shortened: as §1

[7] = test system: OVCAR-5; conditions: Homo sapiens, 72 h; OVCAR-5, RAF WT, RAS WT, 3-day; read-out: gIC50
Procedure, shortened: as §1

[8] = test system: HT-3; conditions: Homo sapiens, 72 h; HT-3, RAF WT, RAS WT, 3-day; read-out: gIC50
Procedure, shortened: as §1

[9] = test system: ARH-77; conditions: Homo sapiens, 72 h; ARH-77, RAF WT, RAS WT, 3-day; read-out: gIC50
Procedure, shortened: as §1

[10] = test system: LNCaP; conditions: Homo sapiens, 72 h, RAF WT, RAS WT, 3-day, read-out: gIC50
Procedure, shortened: as §1

[11] = test system: CAL-27; conditions: Homo sapiens, 72 h; CAL-27, RAF WT, RAS WT, 3-day; read-out: gIC50
Procedure, shortened: as §1

[12] = test system: HuT78; conditions: Homo sapiens, 72 h; HuT78, RAF WT, RAS WT, 3-day; read-out: gIC50
Procedure, shortened: as §1

[13] = test system: NCI-H1792; conditions: Homo sapiens, 72 h; NCI-H1792, RAF WT, RAS WT, 3-day; read-out: gIC50
Procedure, shortened: as §1

[14] = test system: CEM/C1; conditions: Homo sapiens, 72 h; CEM/C1, RAF WT, RAS WT, 3-day; read-out: gIC50
Procedure, shortened: as §1

[15] = test system: MCF-7; conditions: Homo sapiens, MCF7, 72 h; MCF-7, RAF WT, RAS WT, 3-day; read-out: gIC50
Procedure, shortened: as §1

[16] = test system: BC-1; conditions: Homo sapiens, BC1, 72 h; BC-1, RAF WT, RAS WT, 3-day; read-out: gIC50
Procedure, shortened: as §1

[17] = test system: C3A; conditions: Homo sapiens, 72 h, RAF WT, RAS WT, 3-day, read-out: gIC50
Procedure, shortened: as §1

[18] = test system: UACC-257; conditions: Homo sapiens, 72 h; UACC-257, BRAF(V600E), RAS WT, 3-day; read-out: gIC50
Procedure, shortened: as §1

[19] = test system: SNU-16; conditions: Homo sapiens, 72 h; SNU-16, RAF WT, RAS WT, 3-day; read-out: gIC50
Procedure, shortened: as §1

[20] = test system: NCI-N87; conditions: Homo sapiens, 72 h; NCI-N87, RAF WT, RAS WT, 3-day; read-out: gIC50
Procedure, shortened: as §1

[21] = test system: OVCAR-4; conditions: Homo sapiens, 72 h; OVCAR-4, RAF WT, RAS WT, 3-day; read-out: gIC50
Procedure, shortened: as §1

[22] = test system: HOS; conditions: Homo sapiens, 72 h, RAF WT, RAS WT, 3-day, read-out: gIC50
Procedure, shortened: as §1

[23] = test system: SNU-449; conditions: Homo sapiens, 72 h; SNU-449, RAF WT, RAS WT, 3-day; read-out: gIC50
Procedure, shortened: as §1

[24] = test system: NCI-ADR/RES; conditions: Homo sapiens, 72 h, RAF WT, RAS WT, 3-day, read-out: gIC50
Procedure, shortened: as §1

[25] = test system: C33A; conditions: Homo sapiens, C-33-A, 72 h, RAF WT, RAS WT, 3-day, read-out: gIC50
Procedure, shortened: as §1

[26] = test system: KYSE-30; conditions: Homo sapiens, 72 h; KYSE-30, RAF WT, RAS WT, 3-day; read-out: gIC50
Procedure, shortened: as §1

[27] = test system: T-84; conditions: Homo sapiens, T84, 72 h; T-84, RAF WT, KRAS(G13D), 3-day; read-out: gIC50
Procedure, shortened: as §1

[28] = test system: JRT3-T35; conditions: Homo sapiens, J-RT3-T3-5, 72 h; JRT3-T35, RAF WT, RAS WT, 3-day; read-out: gIC50
Procedure, shortened: as §1

[29] = test system: P3HR-1; conditions: Homo sapiens, 72 h; P3HR-1, RAF WT, RAS WT, 3-day; read-out: gIC50
Procedure, shortened: as §1

[30] = test system: NCI-H157; conditions: Homo sapiens, 72 h; NCI-H157, RAF WT, RAS WT, 3-day; read-out: gIC50
Procedure, shortened: as §1

[31] = test system: NCI-H2030; conditions: Homo sapiens, 72 h; NCI-H2030, RAF WT, RAS WT, 3-day; read-out: gIC50
Procedure, shortened: as §1

[32] = test system: A673; conditions: Homo sapiens, 72 h; A673, BRAF(V600E), RAS WT, 3-day; read-out: gIC50
Procedure, shortened: as §1

[33] = test system: BT-20; conditions: Homo sapiens, 72 h; BT-20, RAF WT, RAS WT, 3-day; read-out: gIC50
Procedure, shortened: as §1

`CC(C)(C)c1nc(-c2cccc(NS(=O)(=O)c3c(F)cccc3F)c2F)c(-c2ccnc(N)n2)s1` [dabrafenib] was tested. Which IC50 [1] did it give?
Its IC50 is greater than 10 µM.

And the IC50 [2]?
Its IC50 is greater than 10 µM.

And the IC50 [3]?
The IC50 was greater than 10 µM.

And the IC50 [4]?
Its IC50 is greater than 10 µM.

What about the IC50 [5] of the same compound?
The IC50 was 2.52 µM.

And the IC50 [6]?
Its IC50 is 0.009 µM.

And the IC50 [7]?
The IC50 was greater than 10 µM.

And the IC50 [8]?
The IC50 was greater than 10 µM.

And the IC50 [9]?
Its IC50 is greater than 10 µM.

And the IC50 [10]?
Its IC50 is greater than 10 µM.

And the IC50 [11]?
Its IC50 is greater than 10 µM.

And the IC50 [12]?
The IC50 was 0.052 µM.

And the IC50 [13]?
Its IC50 is greater than 10 µM.

What about the IC50 [14] of the same compound?
Its IC50 is 1.77 µM.

And the IC50 [15]?
The IC50 was greater than 10 µM.

And the IC50 [16]?
Its IC50 is 0.704 µM.

What about the IC50 [17] of the same compound?
Its IC50 is 5.41 µM.

What about the IC50 [18] of the same compound?
Its IC50 is 0.006 µM.

And the IC50 [19]?
Its IC50 is greater than 10 µM.

And the IC50 [20]?
The IC50 was greater than 10 µM.

And the IC50 [21]?
Its IC50 is greater than 10 µM.

What about the IC50 [22] of the same compound?
Its IC50 is greater than 10 µM.

What about the IC50 [23] of the same compound?
Its IC50 is greater than 10 µM.

And the IC50 [24]?
The IC50 was greater than 10 µM.

What about the IC50 [25] of the same compound?
The IC50 was greater than 10 µM.

And the IC50 [26]?
Its IC50 is greater than 10 µM.

And the IC50 [27]?
Its IC50 is greater than 10 µM.

And the IC50 [28]?
The IC50 was 0.295 µM.

And the IC50 [29]?
Its IC50 is greater than 10 µM.

And the IC50 [30]?
Its IC50 is greater than 10 µM.

And the IC50 [31]?
The IC50 was greater than 10 µM.

What about the IC50 [32] of the same compound?
Its IC50 is greater than 10 µM.

What about the IC50 [33] of the same compound?
The IC50 was greater than 10 µM.
